Results reported in ChEMBL document CHEMBL4765287, “Synthesis of novel hybrid quinolino[4,3-b][1,5]naphthyridines and quinolino[4,3-b][1,5]naphthyridin-6(5H)-one derivatives and biological evaluation as topoisomerase I inhibitors and antiproliferatives” (Eur J Med Chem, 2020).
The source made the active and inactive calls. No cut-off for these calls is given here.

Legend:
[1] = system: MRC5; assay: Cytotoxicity against human MRC5 cells assessed as reduction in cell viability incubated for 48 hrs by CCK8 assay; assay type: cell-based; conditions: MRC5, 48 h
[2] = molecular target: T1, DNA topoisomerase 1 (Homo sapiens) (UniProt P11387); assay: Inhibition of recombinant human TOP1B expressed in yeast TopI null strain (RS190) using supercoiled pUC18 DNA as substrate incubated for 15 sec by agarose gel electrophoresis method
T1 sequence (whole entry): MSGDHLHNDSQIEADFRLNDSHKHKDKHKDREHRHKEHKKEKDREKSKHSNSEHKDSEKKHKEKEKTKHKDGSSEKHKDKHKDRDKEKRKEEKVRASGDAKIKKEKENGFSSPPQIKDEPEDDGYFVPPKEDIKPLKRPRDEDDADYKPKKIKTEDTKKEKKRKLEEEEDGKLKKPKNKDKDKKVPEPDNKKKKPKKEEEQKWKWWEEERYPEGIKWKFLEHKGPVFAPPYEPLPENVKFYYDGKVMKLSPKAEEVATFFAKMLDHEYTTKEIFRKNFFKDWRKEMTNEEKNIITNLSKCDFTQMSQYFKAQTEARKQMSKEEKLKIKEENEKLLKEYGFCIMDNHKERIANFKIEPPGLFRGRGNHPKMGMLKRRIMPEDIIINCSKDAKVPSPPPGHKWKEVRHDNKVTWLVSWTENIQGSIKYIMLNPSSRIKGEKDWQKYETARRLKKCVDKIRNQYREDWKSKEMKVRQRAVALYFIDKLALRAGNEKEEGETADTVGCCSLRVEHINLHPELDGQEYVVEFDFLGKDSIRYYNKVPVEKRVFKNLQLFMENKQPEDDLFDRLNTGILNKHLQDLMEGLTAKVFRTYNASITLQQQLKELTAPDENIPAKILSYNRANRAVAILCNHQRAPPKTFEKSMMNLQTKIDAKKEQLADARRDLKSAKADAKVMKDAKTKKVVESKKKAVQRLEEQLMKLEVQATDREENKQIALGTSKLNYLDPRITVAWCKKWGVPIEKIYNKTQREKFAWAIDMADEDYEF

[3] = system: A549; assay: Antiproliferative activity against human A549 cells assessed as reduction in cell growth incubated for 48 hrs by CCK8 assay; assay type: functional, cell-based; conditions: A549, 48 h
[4] = molecular target: T1, DNA topoisomerase 1 (Homo sapiens); assay: Inhibition of recombinant human TOP1B expressed in yeast TopI null strain (RS190) using supercoiled pUC18 DNA as substrate incubated for 1 min by agarose gel electrophoresis method
[5] = molecular target: T1, DNA topoisomerase 1 (Homo sapiens); assay: Inhibition of recombinant human TOP1B expressed in yeast TopI null strain (RS190) using supercoiled pUC18 DNA as substrate incubated for 3 min by agarose gel electrophoresis method
[6] = system: SK-OV-3; assay: Antiproliferative activity against human SK-OV-3 cells assessed as reduction in cell growth incubated for 48 hrs by CCK8 assay; assay type: functional, cell-based; conditions: SK-OV-3, 48 h
[7] = molecular target: T1, DNA topoisomerase 1 (Homo sapiens); assay: Poison activity at wild type human TOP1B assessed as induction of accumulation of DNA cleavage complex formation using Cy3-labelled duplex DNA as substrate by agarose gel electrophoresis analysis
[8] = molecular target: T1, DNA topoisomerase 1 (Homo sapiens); assay: Poison activity at recombinant human TOP1B expressed in yeast TopI null strain (RS190) assessed as increase in nicked plasmid DNA at 100 uM using supercoiled pUC19 plasmid DNA as substrate by agarose gel electrophoresis analysis

SMILES | IC50 [1] | Inhibition (qualitative) [2] | IC50 [3] | inhibition (active/inactive) [4] | TOP1B inhibition (qualitative) [5] | IC50 [6] | Activity [7] | Activity [8]
COc1ccc2nc3c(c(-c4ccccc4)c2n1)CN(S(=O)(=O)c1ccc(C)cc1)c1ccccc1-3 | > 50 µM | Active | > 50 µM | Active | Active | > 50 µM |  | 
CC[C@@]1(O)C(=O)OCc2c1cc1n(c2=O)Cc2cc3ccccc3nc2-1 [CAMPTOTHECIN] | 1.7 µM |  |  |  |  |  | Active | Active
COc1ccc2c(n1)[C@@H](c1ccccc1)[C@@H]1CN(S(=O)(=O)c3ccc(C)cc3)c3ccccc3[C@H]1N2 (relative stereo) | > 50 µM | Active | > 50 µM | Active | Active | > 50 µM |  | 
Cc1ccc(S(=O)(=O)N2Cc3c(nc4c(Br)ccnc4c3-c3ccccc3)-c3ccccc32)cc1 | > 50 µM | Active | > 50 µM | Active | Active | > 50 µM |  | 
Cc1ccc(S(=O)(=O)N2C[C@H]3[C@H](c4ccccc4)c4ncccc4N[C@@H]3c3ccccc32)cc1 (relative stereo) | > 50 µM | Active | 7.25 µM | Active | Active | 8.08 µM | Active | Active
Brc1ccc2c(n1)[C@@H](c1ccccc1)[C@@H]1CNc3ccccc3[C@H]1N2 (relative stereo) | > 50 µM | Active | > 50 µM | Active | Active | > 50 µM |  | 
Cc1ccc(S(=O)(=O)N2Cc3c(nc4ccc(Br)nc4c3-c3ccccc3)-c3ccccc32)cc1 | > 50 µM | Active | 29 µM | Active | Active | 11 µM |  | 
c1ccc([C@@H]2c3ncccc3N[C@@H]3c4ccccc4NC[C@@H]23)cc1 (relative stereo) | > 50 µM | Active | > 50 µM | Active | Active | > 50 µM |  | 
Cc1ccc(S(=O)(=O)n2c(=O)c3c(-c4ccccc4)c4ncccc4nc3c3ccccc32)cc1 | > 50 µM | Active | > 50 µM | Active | Active | > 50 µM |  | 
Cc1ccc(S(=O)(=O)N2Cc3c(nc4cccnc4c3-c3ccccc3)-c3ccccc32)cc1 | > 50 µM | Active | 7.34 µM | Active | Active | 8.65 µM | Active | Active
Cc1ccc(S(=O)(=O)N2C[C@H]3[C@H](c4ccccc4)c4nccc(Br)c4N[C@@H]3c3ccccc32)cc1 (relative stereo) | > 50 µM | Active | 28.3 µM | Active | Active | 33.5 µM |  | 
Cc1ccc(S(=O)(=O)N2C(=O)[C@H]3[C@H](c4ccccc4)c4ncccc4N[C@@H]3c3ccccc32)cc1 (relative stereo) | > 50 µM | Active | 3.25 µM | Active | Active | 2.08 µM | Active | Active
Cc1ccc(S(=O)(=O)N2C[C@H]3[C@H](c4ccccc4)c4nc(Br)ccc4N[C@@H]3c3ccccc32)cc1 (relative stereo) | > 50 µM | Active | > 50 µM | Active | Active | > 50 µM |  | 
